Measurements: patent publication US20210283107A1, “Methods to Expand the Spectrum of Gram-Positive Antibiotics” (NORTH CAROLINA STATE UNIVERSITY, priority 2016, published 2021)
Values after ≈ are worked out from the molar mass of the structure shown. Values joined by “and” are separate entries in the source; they are usually repeats but may differ in a detail not shown here. Equal entries are not always repeated. Where two headings read alike, the source gives them in different places.

Columns and labels:
[1] = system: A. baumannii mutant AB522; experiment: MIC against Tn-seq transposon mutant AB522; type: cell-based; conditions: Acinetobacter baumannii
Experimental: (§1) During individual MIC screening, two mutants, AB522 and AB1310, were identified due to their increased sensitivity to the three macrolide antibiotics and vancomycin when compared to AB 5075 (Table 17).
(§2) Day Cultures (6 h) were subcultured to 5×10^5 CFU/mL in cation adjusted Mueller-Hinton broth (CAMHB). Aliquots (1 mL) were placed in culture tubes, and compound was added from 100 mM stock solutions, such that the compound concentration equaled the highest concentration tested (200 μM or 64 μg/mL). Samples were then aliquoted (200 μL) into the first row of wells of a 96-well plate, with all remaining wells being filled with 100 μL of initial bacterial subculture. The wells in row one were mixed five times before 100 μL was transferred to the following row (row two). Row two was then mixed five times, and 100 μL was transferred to row three. This processed was repeated until the final row had been mixed. This process provided a serial dilution of the compound. Plates were covered with Glad Press n'Seal and were incubated under stationary conditions at 37° C. for 16 hours. MIC values were recorded as the lowest concentration at which no bacterial growth was observed.

A. baumannii strain 5256 = experiment: Potentiation of clarithromycin and vancomycin against clinical isolate; type: cell-based, Acinetobacter baumannii; conditions: with compound at 30 μM
Experimental: (§3) As previously stated, A. baumannii 5075 was chosen for these studies due to its virulence and multidrug resistance, but to further analyze the activity of our lead compounds, 23 A. baumannii clinical isolates obtained from Walter Reed Army Institute of Research (WRAIR) were tested.
(§4) Day Cultures (6 h) were subcultured to 5×10^5 CFU/mL in cation adjusted Mueller-Hinton broth (CAMHB). […] One milliliter of the resulting solution was aliquoted into a separate culture tube and was dosed with antibiotic so that the resulting concentration was the highest desirable concentration to be tested. Bacteria treated with antibiotic alone were used as a control. Row one of a 96-well plate was filled with 200 μL of the antibiotic/compound solution, and the remaining rows were filled with 100 μL of the remaining 4 mL bacterial subculture. The wells in row one were mixed five times before 100 μL was transferred to the following row (row two). Row two was then mixed five times, and 100 μL was transferred to row three. This process was repeated until the second to last row had been reached. The last row is left unexposed to antibiotic in order to serve as a negative control. The antibiotic only treated bacteria was plated by aliquoting 200 μL of the treated bacteria into row one and filling the remaining rows with untreated bacteria from the original bacteria subculture. The rows were mixed in the same way as described above. Plates were covered with Glad Press n'Seal and were incubated under stationary conditions at 37° C. for 16 hours. MIC values were recorded as the lowest concentration at which no bacterial growth was observed. Fold reductions were determined by comparison of the compound treated wells with the antibiotic only treated control wells.

A. baumannii strain 4490 = experiment: as above; type: cell-based, Acinetobacter baumannii; conditions: with compound at 30 μM
Experimental: as §3, §4

A. baumannii strain 3560 = experiment: as above; type: cell-based, Acinetobacter baumannii; conditions: with compound at 30 μM
Experimental: as §3, §4

A. baumannii strain 4025 = experiment: as above; type: cell-based, Acinetobacter baumannii; conditions: with compound at 30 μM
Experimental: as §3, §4

[2] = system: A. baumannii mutant AB1310; experiment: MIC against Tn-seq transposon mutant AB1310; type: cell-based; conditions: Acinetobacter baumannii
Experimental: as §1, §2

[3] = system: A. baumannii strain 5075 (AB5075); experiment: Macrolide sensitization / antibiotic resensitization: antibiotic MIC in presence of compound (broth microdilution); type: cell-based, Acinetobacter baumannii; conditions: for MIC: Acinetobacter baumannii; for potentiation of vancomycin: compound at 10 μM; for reduction in vancomycin MIC (fold): compound at 20 μM; for Josamycin MIC / Oleandomycin MIC / Spiramycin MIC / Troleandomycin MIC: in presence of compound (concentration not given in Table 7); for Amikacin MIC / Gentamicin MIC / Kanamycin MIC / Neomycin MIC / Streptomycin MIC / Tobramycin MIC: in presence of compound (concentration not given in Table 12); for Fold reduction of josamycin MIC: in the presence of compound (concentration not given)
In short: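 Antibiotic MICs were set by broth microdilution in CAMHB (AB5075, 5×10^5 CFU/mL), with compound held constant in every well. Growth was scored visually after 16-18 h at 37° C. Fold-reduction compares compound-treated MIC with the antibiotic-only control.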

AB 5075 = experiment: Backlight assay for membrane permeability; type: cell-based, Acinetobacter baumannii; conditions: AB5075
Experimental: The assay was initially performed at 10, 20 and 30 μM with compounds 1 and 4 (Table 16). […] When the concentration is lowered to 20 μM, the percent of membrane disrupted also decreases to 78% and 83% respectively. When further decreasing the concentration to 10 μM, the membrane disruption decreases to 39 and 44% respectively. Due to the similar structure and lack of potentiation activity, compound 25 was screened at 10, 20 and 30 μM to compare membrane permeability with that of active compounds. The percent disruption was less than seen with compounds 1 and 4 being 53, 54 and 60% respectively.

[4] = compound at 10 μM vs colistin alone, AB5075
[5] = compound at 30 μM vs antibiotic alone, AB5075
[6] = in presence of compound at 4 μM, AB5075
[7] = in presence of compound at 5 μM, AB5075
[8] = in presence of compound at 10 μM, AB5075
[9] = in presence of compound at 15 μM, AB5075
[10] = in presence of compound at 20 μM, AB5075
[11] = in presence of compound at 30 μM, AB5075

Nc1nc(-c2ccc(NC(=O)c3cc(Cl)cc(Cl)c3)cc2)c[nH]1 [Compound 1]
MIC [1]: 12.5 µM (≈ 4.34 µg/mL) | Clarithromycin MIC (A. baumannii strain 5256): 0.25 µg/mL | Vancomycin MIC (A. baumannii strain 5256): 2 µg/mL | Clarithromycin MIC (A. baumannii strain 4490): 0.5 µg/mL | Vancomycin MIC (A. baumannii strain 4490): 1 µg/mL | Clarithromycin MIC (A. baumannii strain 3560): 0.5 µg/mL | Vancomycin MIC (A. baumannii strain 3560): 0.5 µg/mL | Clarithromycin MIC (A. baumannii strain 4025): 0.25 µg/mL | Vancomycin MIC (A. baumannii strain 4025): 2 µg/mL | MIC [2]: 12.5 µM (≈ 4.34 µg/mL) | MIC ([3]; read-out: Daptomycm MIC (μg/mL)): 16 µg/mL | Fold Increase (colistin MIC) [3, 4]: 8 fold | potentiation of vancomycin ([3]; AB5075): no potentiation activity observed | reduction in vancomycin MIC (fold) ([3]; AB5075): 32 fold | Fold Reduction (daptomycin MIC) [3, 5]: 128 fold | Fold Reduction (vancomycin MIC) [3, 5]: 256 fold | Fold Increase (colistin MIC) ([3]; compound at 30 μM vs colistin alone, AB5075): 32 fold | Josamycin MIC ([3]; AB5075): 8 µg/mL | Oleandomycin MIC ([3]; AB5075): 64 µg/mL | Spiramycin MIC ([3]; AB5075): 128 µg/mL | Troleandomycin MIC ([3]; AB5075): 32 µg/mL | Amikacin MIC ([3]; AB5075): 128 µg/mL | Gentamicin MIC ([3]; AB5075): >512 µg/mL | Kanamycin MIC ([3]; AB5075): >512 µg/mL | Neomycin MIC ([3]; AB5075): 16 µg/mL | Streptomycin MIC ([3]; AB5075): 256 µg/mL | Tobramycin MIC ([3]; AB5075): 64 µg/mL | Azithromycin MIC [3, 6]: 32 µg/mL | Vancomycin MIC [3, 6]: 256 µg/mL | Azithromycin MIC [3, 7]: 32 µg/mL | Vancomycin MIC [3, 7]: 256 µg/mL | Azithromycin MIC [3, 8]: 16 µg/mL | Vancomycin MIC [3, 8]: 256 µg/mL | Azithromycin MIC [3, 9]: 16 µg/mL | Vancomycin MIC [3, 9]: 64 µg/mL | Azithromycin MIC [3, 10]: 16 µg/mL | Vancomycin MIC [3, 10]: 8 µg/mL | Azithromycin MIC [3, 11]: 8 µg/mL | Colistin MIC [3, 11]: 16 µg/mL | Linezolid MIC [3, 11]: 128 µg/mL | Vancomycin MIC [3, 11]: 1 µg/mL | Fold reduction of josamycin MIC ([3]; AB5075): 16 fold | Disrupted bacterial membrane (%) (AB 5075; compound at 10 μM): 39% and 38.8% | Disrupted bacterial membrane (%) (AB 5075; compound at 20 μM): 78%

Nc1nc(-c2ccc(NC(=O)c3cc(Br)cc(Br)c3)cc2)c[nH]1 [Compound 4]
MIC [1]: 12.5 µM (≈ 5.45 µg/mL) | Clarithromycin MIC (A. baumannii strain 5256): 0.25 µg/mL | Vancomycin MIC (A. baumannii strain 5256): 8 µg/mL | Clarithromycin MIC (A. baumannii strain 4490): ≤0.25 µg/mL | Vancomycin MIC (A. baumannii strain 4490): 8 µg/mL | Clarithromycin MIC (A. baumannii strain 3560): 0.5 µg/mL | Vancomycin MIC (A. baumannii strain 3560): 32 µg/mL | Clarithromycin MIC (A. baumannii strain 4025): 0.25 µg/mL | Vancomycin MIC (A. baumannii strain 4025): 16 µg/mL | MIC [2]: 12.5 µM (≈ 5.45 µg/mL) | MIC ([3]; in presence of compound at 30 μM, AB5075, read-out: Daptomycm MIC): 64 µg/mL | Fold Increase (colistin MIC) [3, 4]: 0 fold | potentiation of vancomycin ([3]; AB5075): no potentiation activity observed | reduction in vancomycin MIC (fold) ([3]; AB5075): 64 fold | Fold Reduction (daptomycin MIC) [3, 5]: 32 fold | Fold Reduction (vancomycin MIC) [3, 5]: 256 fold | Fold reduction (clarithromycin MIC) [3, 5]: 128 fold | Josamycin MIC ([3]; AB5075): 4 µg/mL | Oleandomycin MIC ([3]; AB5075): 128 µg/mL | Spiramycin MIC ([3]; AB5075): 64 µg/mL | Troleandomycin MIC ([3]; AB5075): 16 µg/mL | Amikacin MIC ([3]; AB5075): 128 µg/mL | Gentamicin MIC ([3]; AB5075): >512 µg/mL | Kanamycin MIC ([3]; AB5075): >512 µg/mL | Neomycin MIC ([3]; AB5075): 64 µg/mL | Streptomycin MIC ([3]; AB5075): 512 µg/mL | Tobramycin MIC ([3]; AB5075): 64 µg/mL | Azithromycin MIC [3, 6]: 64 µg/mL | Vancomycin MIC [3, 6]: 128 µg/mL | Azithromycin MIC [3, 7]: 64 µg/mL | Vancomycin MIC [3, 7]: 256 µg/mL | Azithromycin MIC [3, 8]: 32 µg/mL | Colistin MIC [3, 8]: 0.5 µg/mL | Vancomycin MIC [3, 8]: 128 µg/mL | Azithromycin MIC [3, 9]: 8 µg/mL | Vancomycin MIC [3, 9]: 32 µg/mL | Azithromycin MIC [3, 10]: 16 µg/mL | Vancomycin MIC [3, 10]: 4 µg/mL | Azithromycin MIC [3, 11]: 8 µg/mL | Colistin MIC [3, 11]: 4 µg/mL | Linezolid MIC [3, 11]: 256 µg/mL | Vancomycin MIC [3, 11]: 1 µg/mL | Fold reduction of josamycin MIC ([3]; AB5075): 32 fold | Disrupted bacterial membrane (%) (AB 5075; compound at 10 μM): 44% | Disrupted bacterial membrane (%) (AB 5075; compound at 20 μM): 83% and 83.2% | Disrupted bacterial membrane (%) (AB 5075; compound at 30 μM): 87.4%
